In patent US20060194814A1, “Benzamide compounds” (priority 2003, published 2006):
Where a name gives a salt, the structure may show the parent alone.

Legend:
HMG-CoA reductase mRNA [1] = assay: HMG-CoA reductase mRNA expression by Q-PCR in UT-1 cells; assay type: cell-based, Chinese hamster
Experimental: (§1) After treatment, cells were stimulated with 1 mM dbcAMP for 24 hours. At the end of the incubation, total cell RNA was extracted using RNA STAT-60 (Tel-Test Inc, Friendswood, Tex.) according to the manufacturer's instructions. HMG-CoA reductase mRNA was quantified by Q-PCR using the ABI Prism 7700 sequence detection system (Perkin-Elmer/Applied Biosystems, Foster City, Calif.). RT reaction was performed using TaqMan® Reverse Transcription Reagents with 1 g total RNA and random hexamers as primers for each reaction according to the manufacturer's instructions. For quantifying mouse HMG-CoA reductase mRNA with Q-PCR, the primers were designed according to GenBank Accession Number BC 019782 using PE/AB Primer Express software, which is specifically designed for the selection of primers and probes. The forward primer was 5′-[…]-3′ (22 nucleotides; SEQ ID NO:1) and reverse primer was 5′-[…]-3′ (23 nucleotides; SEQ ID NO:2), respectively. The primers were synthesized by Bio-Synthesis Inc. (Lewisville, Tex.). Reactions were performed in a reaction mixture consisting of a 20 l volume solution containing 10 l SYBR® Green PCR Master Mix and 1 l primers mix (5 M each) with 2 l cDNA.

HeLa cells = assay: MTT cytotoxicity assay after the HIV replication protocol; assay type: cell-based, human; conditions: all concentrations tested, up to 100 μM
HIV-1 IIIB strain = assay: HIV-1 IIIB replication in HeLa indicator cells (AV-Finder-HIV assay), no pre-medication; assay type: cell-based
[2] = test system: Y1 mouse adrenal tumor cells; assay: dbcAMP-induced 20á-hydroxyprogesterone synthesis in Y1 cells; assay type: cell-based; conditions: Y1 cells
Experimental: Culture media were then changed and cells were stimulated with 1 mM dbcAMP and the treatment for 24 to 48 hours. […] The synthesis of 20 —OH progesterone and progesterone in Y1 and MA-10 cell media respectively were measured by RIA (Brown et al., 1992). H295R human adrenal tumor cells were seeded in 48-well plates at 10^5 cells/well and incubated for 24 hours. […] At the end of the incubation time period, cells were treated with 1 mM dbcAMP for 48 hours. Cortisol levels in the media were determined by radioimmunoassay as previously described (Amri et al., 1996).

[3] = test system: MA-10 mouse Leydig tumor cells; assay type: cell-based
Experimental: Cell viability at the end of the incubation protocol described above was assessed using the mitochondrial integrity 3-(4,5-dimethylthiazol-2-yl)-2,5-diphenyl tetrazolium bromide (MTT) assay (Trevigen, Gaithersburg, Md.). Briefly, 10 l of the MTT solution were added to the cells in 100 l medium. After an incubation period of 4 hours, 100 l of detergent were added and cells were incubated overnight at 37° C. Formazan blue formation was quantified at 600 nm and 690 nm using the Victor quantitative detection spectrophotometer (EGG-Wallac, Gaithersburg, Md.) and the results expressed as (OD600-OD690).

P-450scc = biological target: T1, P-450scc (Mus musculus, UniProt Q9QZ82); assay: 22R-hydroxycholesterol-induced 20á-hydroxyprogesterone synthesis in Y1 cells; assay type: cell-based
T1 construct: endogenous in cells; host or cells: Y1 mouse adrenal tumor cells
T1 sequence (Q9QZ82 37-526): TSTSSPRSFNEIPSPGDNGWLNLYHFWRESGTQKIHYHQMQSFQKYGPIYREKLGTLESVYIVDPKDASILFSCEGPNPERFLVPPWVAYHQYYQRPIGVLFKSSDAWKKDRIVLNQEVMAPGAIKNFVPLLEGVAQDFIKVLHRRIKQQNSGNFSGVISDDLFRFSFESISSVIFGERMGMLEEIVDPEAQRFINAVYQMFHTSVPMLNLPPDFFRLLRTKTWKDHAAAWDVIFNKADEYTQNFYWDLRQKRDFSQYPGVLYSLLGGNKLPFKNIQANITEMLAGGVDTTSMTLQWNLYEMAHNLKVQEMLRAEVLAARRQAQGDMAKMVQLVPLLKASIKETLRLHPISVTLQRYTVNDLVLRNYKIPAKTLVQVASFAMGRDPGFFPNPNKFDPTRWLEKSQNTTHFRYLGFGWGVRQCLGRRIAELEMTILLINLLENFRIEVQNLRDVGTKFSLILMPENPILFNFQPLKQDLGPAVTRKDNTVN
Experimental: […] […] The synthesis of 20 —OH progesterone and progesterone in Y1 and MA-10 cell media respectively were measured by RIA (Brown et al., 1992). H295R human adrenal tumor cells were seeded in 48-well plates at 10^5 cells/well and incubated for 24 hours. […] At the end of the incubation time period, cells were treated with 1 mM dbcAMP for 48 hours. Cortisol levels in the media were determined by radioimmunoassay as previously described (Amri et al., 1996).

HMG-CoA reductase mRNA [4] = assay: HMG-CoA reductase mRNA expression by Q-PCR in Hepa1-6 cells; assay type: cell-based; conditions: Hepa1-6 mouse liver hepatoma cells
Experimental: as §1

For CCN(CC)CCOC(=O)c1ccc(N)cc1 [SP01, procaine HCl], the “effect on HMG-CoA reductase mRNA expression” value (HMG-CoA reductase mRNA [1]) was “not significant”, the “cell toxicity (MTT)” value (HeLa cells) was “devoid of cell toxicity” and the “efficacy in reducing HIV-1 IIIB replication compared to AZT, ddI or 3TC” value (HIV-1 IIIB strain; human cells) was “efficacy higher than AZT, ddI or 3TC”. The “efficacy on HIV-1 IIIB viral replication compared to 3TC” value (HIV-1 IIIB strain; no pre-medication, concentrations up to 0.1 μM) was “higher efficacy than the classical antiviral agent 3TC”, the “effect on dbcAMP-induced 20á-hydroxyprogesterone production” value [2] was “decreased in a dose-dependent manner” and the “lowest concentration inhibiting cAMP-induced steroid synthesis” value [2] was 0.1 µM. For the same compound, the “inhibition of dbcAMP-stimulated steroid formation” value ([2]; procaine at 1 M / 1 iM) was 90%, the “effect on cell viability (MTT)” value [3] was “did not affect MA-10 cell viability” and the “effect on 22R-hydroxycholesterol-induced steroidogenesis” value (P-450scc) was “did not inhibit”. For the same compound, the “effect on dbcAMP-induced HMG-CoA reductase mRNA levels” value (HMG-CoA reductase mRNA [4]) was “inhibited”.
